pEC50: −log10 of the molar value.
Assays:
CRE-GFP 293 cells [1] = experiment: CRE-GFP 293 reporter cell assay (flow cytometry); format: cell-based, Human
From the text: Using the pCRE-MetLuc2-Reporter plasmid (Clontech, Mountain View, CA, USA) as a template, the DNA fragment containing the cAMP response element (CRE) motifs and TATA-like promoter (PTAL) flanked by MluI and AgeI restriction sites was amplified by PCR using sense ([…], MluI site underlined) and antisense ([…], AgeI site underlined) primers. The amplified CRE-PTAL promoter fragment was cloned into pGEM-T Easy (Promega, Madison, WI, USA) and sequenced. The CRE-PTAL-containing MluI/AgeI fragment and GFP-containing AgeI/NotI fragment (from pEGFP-N1; Clontech) were subcloned into MluI- and NotI-digested pcDNA5/FRT/TO (Novagen, Madison, WI, USA). The resulting construct with CRE-PTAL-driving GFP was used to establish 293 GFP reporter cells by targeting insertion into Flp-In-293 cells according to the supplier's instructions (Invitrogen). The cells were grown in a medium containing 5 μg/ml blasticidin and 100 μg/ml hygromycin.
On day 1, CRE-GFP 293 cells were seeded into 48-well plates (5 × 10^4/well). After 24 h, cells were treated with Ca^2+ ionophore (2 μM) (Sigma-Aldrich) for 0–24 h. Cell viability was measured using 3,(4,5-dimethylthiazol-2-yl)-2,5-diphenyltetrazolium bromide (MTT) assay (Sigma-Aldrich). The absorbance of the insoluble purple formazan dye was quantified at 570 nm on a μQuant microplate spectrophotometer (Bio-Tek). In addition, the cells were treated with the Ca^2+ ionophore A23187 (0.5–10 μM) (Sigma-Aldrich) for 5 h, followed by analysis of GFP fluorescence by flow cytometry (Becton–Dickinson, Franklin Lakes, NJ, USA) with excitation/emission wavelengths at 488/507 nm. To monitor CREB activation, cells were treated with forskolin or coumarin-chalcone derivatives (5–10 μM) in the presence or absence of Ca^2+ ionophore (2 μM) for 5 h, and GFP fluorescence was analysed.
(§1) To monitor the cAMP-mediated signal transduction pathway, CRE-GFP 293 cells in 6-well plates (1 × 10^6/well) were pretreated with kinase inhibitor H-89 (LC Laboratories, Woburn, MA, USA), KN-62 (Cayman Chemical, Ann Arbor, MI, USA), U0126 (LC Laboratories), or wortmannin (LC Laboratories) (10 μM) for 4 h before forskolin or LM-021 (10 μM) addition for 5 h. GFP fluorescence/protein and total/phosphorylated PKA, CaMKII, ERK, PI3K, and CREB levels were examined. In addition, Aβ-GFP or ∆K280 tauRD-DsRed SH-SY5Y cells were treated with retinoic acid (10 μM) on day 1, followed by the addition of LM-021 (5 or 10 μM) and doxycycline (5 or 2 μg/ml) on day 2, as described. Kinase inhibitors (10 μM) were added on day 6. On day 8, the cells were collected for protein expression analysis of BDNF, BCL2 (BCL2 apoptosis regulator), and BAX (BCL2 associated X, apoptosis regulator), and total/phosphorylated PKA, CaMKII, ERK, PI3K, and CREB. Also, cells were stained with DAPI and assessed for neurite outgrowth as described above.

Aβ-GFP SH-SY5Y cells [2] = experiment: High content analysis of neurite outgrowth in Aβ-GFP cells; format: cell-based, Human; details: inhibitor 10 μM on day 6, LM-021 5 μM
Protocol: (§2) On day 1, Aβ-GFP or ∆K280 tauRD-DsRed SH-SY5Y cells were plated into 24-well plates (6 × 10^4/well) followed by addition of retinoic acid. On day 2, cells were treated with coumarin-chalcone derivatives (5 or 10 μM) and with doxycycline (5 or 2 μg/ml) to induce the expression of Aβ-GFP or ∆K280 tauRD-DsRed. On day 8, 4% paraformaldehyde, 0.1% Triton X-100, and 3% BSA were used to fix, permeabilize, and block cells, respectively. Subsequently, the cells were stained with TUBB3 (neuronal class III β-tubulin) primary antibody (1 : 1000; Covance, Princeton, NJ, USA) at 4°C overnight. Goat anti-rabbit Alexa Fluor 555 secondary antibody (1 : 1000; Thermo Fisher Scientific) was then added, followed by a 3 h incubation at room temperature. Following staining nuclei with 4′,-6-diamidino-2-phenylindole (DAPI) (0.1 μg/ml; Sigma-Aldrich), the neurons were imaged by using the HCA system and analysed by using the Neurite Outgrowth Application Module (MetaXpress; Molecular Devices).
as §1

[3] = system: ∆K280 tauRD-DsRed SH-SY5Y cells; experiment: High content analysis of neurite outgrowth in ΔK280 tauRD-DsRed cells; format: cell-based, Human; details: inhibitor 10 μM on day 6, LM-021 10 μM
Protocol: as §2, §1

CRE-GFP 293 cells [4] = experiment: Western blot in CRE-GFP 293 cells; format: cell-based, Human; details: inhibitor 10 μM, LM-021 10 μM, without Ca2+ ionophore, immunoblot
Protocol: as §1
Total proteins from CRE-GFP 293 and Aβ-GFP, ∆K280 tauRD-DsRed SH-SY5Y cells were extracted using lysis buffer (50 mM Tris-HCl (pH 8.0), 150 mM NaCl, 1 mM EDTA (pH 8.0), 1 mM EGTA (pH 8.0), 0.1% SDS, 0.5% sodium deoxycholate, 1% Triton X-100) containing phosphatase and protease inhibitor cocktails (Sigma-Aldrich). Protein concentrations were measured using a protein assay kit (Bio-Rad, Hercules, CA, USA), and 20 μg of proteins was separated with 10% SDS-PAGE and blotted onto polyvinylidene difluoride (PVDF) membranes (Sigma-Aldrich). […]

Aβ-GFP SH-SY5Y cells [5] = experiment: Western blot in Aβ-GFP SH-SY5Y cells; format: cell-based, Human; details: inhibitor 10 μM on day 6, LM-021 5 μM
Protocol: as §1
(§3) Total proteins from CRE-GFP 293 and Aβ-GFP, ∆K280 tauRD-DsRed SH-SY5Y cells were extracted using lysis buffer (50 mM Tris-HCl (pH 8.0), 150 mM NaCl, 1 mM EDTA (pH 8.0), 1 mM EGTA (pH 8.0), 0.1% SDS, 0.5% sodium deoxycholate, 1% Triton X-100) containing phosphatase and protease inhibitor cocktails (Sigma-Aldrich). Protein concentrations were measured using a protein assay kit (Bio-Rad, Hercules, CA, USA), and 20 μg of proteins was separated with 10% SDS-PAGE and blotted onto polyvinylidene difluoride (PVDF) membranes (Sigma-Aldrich). After blocking, the membrane blot was incubated with primary antibody against GFP (1 : 500; Santa Cruz Biotechnology, Santa Cruz, CA, USA), PKA (1 : 1000; R&D Systems, Minneapolis, MN, USA), p-PKA (T197) (1 : 1000; Cell Signaling, Danvers, MA, USA), ERK (1 : 500; Cell Signaling), p-ERK (T202/Y204) (1 : 500; Cell Signaling), CaMKII (1 : 1000; Santa Cruz Biotechnology), p-CaMKII (T286) (1 : 1000; Cell Signaling), CREB (1 : 1000; Santa Cruz Biotechnology), p-CREB (S133) (1 : 1000; Millipore, Billerica, MA, USA), BDNF (1 : 500; Santa Cruz Biotechnology), BCL2 (1 : 500; BioVision), BAX (1 : 500; BioVision), GAPDH (glyceraldehyde-3-phosphate dehydrogenase, as a loading control) (1 : 1000; MDBio, Taipei, Taiwan), or β-tubulin (1 : 1000, Sigma-Aldrich, as a loading control). The immune complexes were visualized using horseradish peroxidase-conjugated goat anti-mouse or goat anti-rabbit IgG antibody (1 : 5000, GeneTex, Irvine, CA, USA) and a chemiluminescent substrate (Millipore).

[6] = system: ∆K280 tauRD-DsRed SH-SY5Y cells; experiment: Western blot in ΔK280 tauRD-DsRed SH-SY5Y cells; format: cell-based, Human; details: inhibitor 10 μM on day 6, LM-021 10 μM
Protocol: as §1, §3

[7] = DPPH radical-scavenging assay; details: compounds 10–160 μM, 100 μM DPPH, 30 min, n = 3
Protocol: Stable free radical 1,1-diphenyl-2-picrylhydrazyl (DPPH) (Sigma-Aldrich) was applied to test the potential radical-scavenging activity of the coumarin-chalcone derivatives. In brief, the compounds (10–160 μM) were added to an ethanol solution containing 100 μM DPPH. The mixture was vortexed for 15 sec, left to stand for 30 min at room temperature, and scavenging capacity was measured at a wavelength of 517 nm using a Multiskan GO microplate spectrophotometer (Thermo Fisher Scientific, Waltham, MA, USA).

Compound	Effect of kinase inhibitor on LM-021-activated GFP levels (CRE-GFP 293 cells [1]; inhibitor 10 μM 4 h before LM-021 10 μM, presence or absence of Ca2+ ionophore)	Effect of kinase inhibitor on forskolin-activated GFP level (CRE-GFP 293 cells [1]; inhibitor 10 μM 4 h before forskolin 10 μM, presence of Ca2+ ionophore)	Effect of kinase inhibitor on LM-021-improved neurite length, processes, and branches (Aβ-GFP SH-SY5Y cells [2])	Effect of kinase inhibitor on LM-021-ameliorated neurite length and branch length [3]	Effect of kinase inhibitor on increased p-CREB and GFP protein levels (CRE-GFP 293 cells [4])	Effect of kinase inhibitor on LM-021-upregulated kinase phosphorylation (Aβ-GFP SH-SY5Y cells [5])	Effect of kinase inhibitor on LM-021 increase in p-CREB, pro-BDNF, m-BDNF, and BCL2 (Aβ-GFP SH-SY5Y cells [5])	Effect of kinase inhibitor on LM-021-upregulated kinase phosphorylation [6]	Effect of kinase inhibitor on LM-021 upregulation of p-CREB, pro-BDNF, m-BDNF, and BCL2 [6]	pEC50 [7]
O=S(=O)(NCCNC/C=C/c1ccc(Br)cc1)c1cccc2cnccc12 [H-89]	attenuated the GFP levels	attenuated the GFP level	counteracted these improvements	reversed these effects	significantly reduced	mitigated the increase of p-PKA	attenuated the increase	reduced the upregulation of p-PKA	attenuated the upregulation	
O=c1c(O)c(-c2ccc(O)cc2)oc2cc(O)cc(O)c12 [Kaempferol, kaempferol, reference compound]										4.55
